Laboratory results published in ChEMBL document CHEMBL5058564, “EUbOPEN Chemogenomics Library 2 (Incucyte)” (2022).

Assays:
Assay type in all cases: toxicity, cell-based
Fibroblast = test: Incucyte cell viability with human fibroblast; conditions: 10 µM, compound concentration 10 uM
HEK-293T = test: Incucyte cell viability with HEK293T; conditions: human, 10 µM, compound concentration 10 uM
U2OS = test: Incucyte cell viability with U2OS; conditions: human, 10 µM, compound concentration 10 uM
[1] = 0 h, replicate number 1, timepoint 0 hours
[2] = 6 h, replicate number 2, timepoint 6 hours
[3] = 12 h, replicate number 2, timepoint 12 hours
[4] = 18 h, replicate number 1, timepoint 18 hours
[5] = 24 h, replicate number 1, timepoint 24 hours
[6] = 6 h, replicate number 1, timepoint 6 hours
[7] = 12 h, replicate number 1, timepoint 12 hours
[8] = 18 h, replicate number 2, timepoint 18 hours
[9] = 24 h, replicate number 2, timepoint 24 hours
[10] = 0 h, replicate number 2, timepoint 0 hours
Further: unitless GR value; below 1 slowed growth and below 0 cell loss.

| SMILES | Growth Rate (Fibroblast; [2]) | Growth Rate (Fibroblast; [3]) | Growth Rate (Fibroblast; [4]) | Growth Rate (Fibroblast; [5]) | Growth Rate (HEK-293T; [6]) | Growth Rate (HEK-293T; [7]) | Growth Rate (HEK-293T; [4]) | Growth Rate (HEK-293T; [5]) | Growth Rate (U2OS; [6]) | Growth Rate (U2OS; [2]) | Growth Rate (U2OS; [3]) | Growth Rate (U2OS; [4]) | Growth Rate (U2OS; [8]) | Growth Rate (U2OS; [5]) | Growth Rate (U2OS; [9]) | Growth Rate (Fibroblast; [6]) | Growth Rate (Fibroblast; [7]) | Growth Rate (HEK-293T; [3]) | Growth Rate (HEK-293T; [8]) | Growth Rate (HEK-293T; [9]) | other results |
| --- | --- | --- | --- | --- | --- | --- | --- | --- | --- | --- | --- | --- | --- | --- | --- | --- | --- | --- | --- | --- | --- |
| CO[C@H]1CC[C@@H](C(=O)c2ccc3nc4c(cc3c2)CCCO4)CC1 | 0.07 | 0.87 | 0.79 | 0.48 | 0.72 | 0.84 | 0.59 | 0.73 | -0.12 | 0.55 | 0.67 | 0.36 | 0.74 | 0.74 | 0.78 |  |  |  |  |  | Growth Rate (Fibroblast; [1]): 0.96; Growth Rate (U2OS; [7]): 0.27 |
| CC(C)OC(=O)N1CCC(Oc2ncnc3c2cnn3-c2ccc(S(C)(=O)=O)cc2F)CC1 |  | 0.61 | 0.38 | 0.47 | 0.81 | 0.82 | 0.98 |  |  | 0.7 |  |  |  |  | 0.97 | 0.15 | 0.04 |  |  |  | Growth Rate (Fibroblast; [1]): 0.77; Growth Rate (Fibroblast; [10]): -0.13; Growth Rate (Fibroblast; [8]): 0.58; Growth Rate (Fibroblast; [9]): 0.69; Growth Rate (U2OS; [10]): -1 |
| COc1ccncc1C(=O)NC(=O)Nc1ccc(-c2ccccc2)c(C(F)(F)F)c1 | 0.15 |  | 0.7 | 0.92 | 0.25 | 0.48 | 0.58 | 0.69 |  | 0.74 |  |  | 0.94 |  | 1 | -0.12 | 0.58 | 0.74 | 0.86 |  | Growth Rate (Fibroblast; [1]): 0.48; Growth Rate (Fibroblast; [10]): 0.72; Growth Rate (HEK-293T; [2]): 0.96 |
| Cn1cnc(-c2cc3nccc(Oc4ccc(NC(=S)NC(=O)Cc5ccccc5)cc4F)c3s2)c1 | -0.42 | 0.3 | 0.43 | 0.31 | -0.37 | -0.02 | 0.28 | 0.6 |  |  | 0.95 |  | 0.93 |  | 0.98 | 0.43 | -0.11 | 0.34 | 0.64 | 0.99 | Growth Rate (Fibroblast; [10]): 0.94; Growth Rate (Fibroblast; [8]): 0.77; Growth Rate (HEK-293T; [2]): -0.26; Growth Rate (U2OS; [1]): -0.11; Growth Rate (U2OS; [10]): -0.99 |
| C[C@@](Cc1c[nH]c2ccccc12)(NC(=O)Nc1ccc([N+](=O)[O-])cc1)C(=O)NCC1(c2ccccn2)CCCCC1 | -0.88 | -0.59 | -0.63 | -0.6 | -0.16 | -0.39 | -0.33 | -0.26 | 0.28 | 0.12 | -0.2 | -0.21 | -0.3 | -0.26 | -0.21 | -0.69 | -0.66 | -0.14 | -0.15 | -0.13 | Growth Rate (Fibroblast; [8]): -0.53; Growth Rate (Fibroblast; [9]): -0.51; Growth Rate (HEK-293T; [2]): -0.01; Growth Rate (U2OS; [1]): 0.29; Growth Rate (U2OS; [7]): -0.03 |
| Cn1cc(C(=O)OCC2CCN(CCNS(C)(=O)=O)CC2)c2ccccc21 |  | 0.4 | 0.33 | 0.43 | 0.81 | 0.43 | 0.29 | 0.35 |  | 0.45 | 0.95 |  | 0.89 |  |  | -0.25 | 0.1 |  |  | 0.96 | Growth Rate (Fibroblast; [1]): 0.81; Growth Rate (Fibroblast; [9]): 0.82 |
| Nc1nc(-c2ccco2)c2cnn(Cc3ccccc3F)c2n1 | -0.89 | -0.55 | -0.75 | -0.66 | -0.23 | -0.22 | -0.17 | -0.12 | 0.66 | 0.28 | 0.27 | 0.95 | 0.48 | 0.89 | 0.48 | -0.86 | -0.81 | -0.25 | -0.05 | 0.12 | Growth Rate (Fibroblast; [8]): -0.29; Growth Rate (Fibroblast; [9]): -0.09; Growth Rate (HEK-293T; [2]): -0.21; Growth Rate (U2OS; [1]): -0.81 |
| CC[S+]([O-])c1nc(-c2cccc(OCc3ccccc3)c2)cc(C(F)(F)F)n1 (stereo not drawn) | -0.73 | -0.52 | -0.48 | -0.4 | -0.65 | -0.45 | -0.27 | -0.13 | -0.91 | -0.17 | -0.16 | -0.19 | 0.03 | -0.09 | 0.16 | -0.79 | -0.65 | -0.65 | -0.43 | -0.24 | Growth Rate (Fibroblast; [9]): -0.5; Growth Rate (HEK-293T; [2]): -0.82; Growth Rate (U2OS; [10]): -1; Growth Rate (U2OS; [7]): -0.48 |
| O=C(NCc1ccc(F)cc1)N1CCN2C(=O)OC(c3ccccc3)(c3ccccc3)C2C1 (stereo not drawn) | 0.42 |  |  | 0.67 | 0.88 |  | 1 | 0.92 | 0.37 | 0.99 |  |  | 0.99 |  | 0.97 |  |  |  |  |  | Growth Rate (Fibroblast; [1]): -0.48; Growth Rate (Fibroblast; [10]): 0.83 |
| CCN1C(=CC(C)=O)Sc2ccc(OC)cc21 |  |  | 0.69 | 0.7 | 0.17 | 0.45 | 0.69 | 0.72 | 0.65 |  | 0.88 | 0.63 |  | 0.89 |  | -0.68 | 0.45 |  |  |  | Growth Rate (Fibroblast; [10]): 0.29; Growth Rate (HEK-293T; [10]): -1; Growth Rate (U2OS; [1]): -0.04; Growth Rate (U2OS; [10]): -0.03; Growth Rate (U2OS; [7]): 0.7 |
| COCCN1CCC(c2cc(CN(C)C(=O)c3cccc(Oc4ccccc4)c3)ccn2)CC1 |  |  |  |  | 0.44 | 0.83 | 0.81 | 1 | 0.63 | 0.6 | 0.87 | 0.67 | 0.97 | 0.93 |  | 0.77 |  | 0.93 | 0.92 | 0.89 | Growth Rate (Fibroblast; [1]): 0.94; Growth Rate (HEK-293T; [10]): 0.76; Growth Rate (U2OS; [1]): -0.65; Growth Rate (U2OS; [10]): -0.76; Growth Rate (U2OS; [7]): 0.74 |
| O=C(Nc1cc(-c2cn[nH]c2)ccc1N1CCOCC1)c1ccc(-c2ccc3ncccc3c2)o1 |  | 0.89 | 0.43 | 0.3 | -0.01 | -0.14 | 0 | 0.15 | 0.9 |  |  | 0.57 | 0.39 | 0.7 | 0.26 |  | 0.82 | 0.02 | 0.07 | 0.04 | Growth Rate (Fibroblast; [1]): 0.62; Growth Rate (Fibroblast; [10]): -0.67; Growth Rate (Fibroblast; [8]): 0.89; Growth Rate (Fibroblast; [9]): 0.83; Growth Rate (HEK-293T; [10]): 0.28; Growth Rate (HEK-293T; [2]): 0.26; Growth Rate (U2OS; [1]): 0.53; Growth Rate (U2OS; [7]): 0.6 |
| CC(=O)c1ccc2c(c1)[C@@H]1C=CC[C@@H]1[C@H](c1cc3c(cc1Br)OCO3)N2 | -0.8 | -0.47 | -0.76 | -0.54 | -0.31 | 0.01 | -0.14 | -0.12 |  | 0 | -0.23 | 0.03 | -0.33 | -0.17 | -0.31 | -0.85 | -0.78 | -0.05 | -0.06 | -0.02 | Growth Rate (Fibroblast; [8]): -0.23; Growth Rate (Fibroblast; [9]): -0.18; Growth Rate (HEK-293T; [2]): -0.36; Growth Rate (U2OS; [1]): 0.33; Growth Rate (U2OS; [7]): 0.01 |
